# Patent US10829520B2, “Beta-hairpin peptidomimetics” (POLYPHOR AG, priority 2015, dated 2020)
# Where a SMILES comes first, the peptide text is derived from it. Bridges are numbered along the chain shown (N, C = ends). Roman numbers before positions name the chains, in order. [ ]: non-standard residue; d: D form. Hyp = O=C(O)[C@@H]1C[C@@H](O)CN1; dDab = NCC[C@@H](N)C(=O)O; Orn = NCCC[C@H](N)C(=O)O; Dab = NCC[C@H](N)C(=O)O; dAze = O=C(O)[C@H]1CCN1
# How the values were obtained:
# Assay type in all cases: cell-based
# [1] = test system: human red blood cells (hRBC); test: Hemolysis of human red blood cells; settings: red cells of human, 1 h, 100
# Summary of the method: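 hRBC washed 3× PBS; 20% v/v, ~0.9×10^9 cells/mL final. Peptide 100 μg/mL, 1 h, 37° C., 300 rpm. Spin, supernatant diluted 8×, OD540. 0% = PBS + 0.001% acetic acid; 100% = 2.5% Triton X-100. % hemolysis = OD540 peptide/OD540 full lysis × 100.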
# [2] = test system: Pseudomonas aeruginosa ATCC 27853; settings: ATCC 27853
# Summary of the method: (§1)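 CLSI broth microdilution; MH-II (cation-adjusted) + 0.002% P-80; ~10^6 CFU/mL inoculum; peptide two-fold serial dilutions; 18-20 h, 35° C; MIC = no visible growth, μg/mL.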
# [3] = test system: Klebsiella pneumoniae 968733; settings: 968733
# [4] = test system: Escherichia coli ATCC 25922; settings: ATCC 25922
# Summary of the method: as §1
# [5] = test system: Klebsiella pneumoniae SSI #3010; settings: SSI #3010
# Summary of the method: as §1
# [6] = test system: Acinetobacter baumannii DSM 30008; settings: DSM 30008
# Summary of the method: as §1
# [7] = test system: Escherichia coli 926415; settings: 926415
# [8] = test system: Acinetobacter baumannii 872842; settings: 872842
SMILES,Hemolysis at 100 μg/mL [1] [%],Pseudomonas aeruginosa ATCC 27853 MIC [2] [µg/mL],Klebsiella pneumoniae 968733 MIC [3] [µg/mL],Escherichia coli ATCC 25922 MIC [4] [µg/mL],Klebsiella pneumoniae SSI #3010 MIC [5] [µg/mL],Acinetobacter baumannii DSM 30008 MIC [6] [µg/mL],Escherichia coli 926415 MIC [7] [µg/mL],Acinetobacter baumannii 872842 MIC [8] [µg/mL]
CC(C)C[C@@H]1NC(=O)[C@@H](CC(C)C)NC(=O)[C@H](CCN)NC(=O)[C@@H](NC(=O)[C@H](CCN)NC(=O)[C@@H](NC(=O)[C@H](CCN)NC(=O)CC[C@@H]2NC(=O)CNC(=O)[C@H](Cc3ccc(O)cc3)NC(=O)[C@H](CO)NC(=O)[C@H](CC(C)C)NC(=O)[C@@H]3CCCN3C(=O)[C@H]3CCCN3C(=O)[C@H](CO)NC(=O)[C@H]([C@@H](C)O)NC(=O)[C@H](C(C)C)NC(=O)[C@H](CCN)NC(=O)[C@H](Cc3c[nH]c4ccccc34)NC(=O)[C@H](CCN)NC(=O)[C@@H](CCN)NC2=O)[C@@H](C)O)CCNC(=O)[C@H]([C@@H](C)O)NC(=O)[C@H](CCN)NC(=O)[C@H](CCN)NC1=O [Ex. 90] (I: cyclo(LSYGE[dDab][Dab]W[Dab]VTS[dP]P) / II: [Dab]T[Dab][Dab][Dab][dL]L[Dab][Dab]T; amide I:5-II:N; lactam II:4-II:C),1,0.25,0.25,0.125,0.125,0.125,0.25,0.25
CC(C)C[C@@H]1NC(=O)[C@@H](CC(C)C)NC(=O)[C@H](CCN)NC(=O)[C@@H](NC(=O)[C@H](CCN)NC(=O)[C@@H](NC(=O)[C@H](CCN)NC(=O)CC[C@@H]2NC(=O)[C@H](CCN)NC(=O)[C@H](Cc3ccc(O)cc3)NC(=O)[C@H]([C@@H](C)O)NC(=O)[C@H](CC(C)C)NC(=O)[C@@H]3CCCN3C(=O)[C@H]3CCCN3C(=O)[C@H](CO)NC(=O)[C@H]([C@@H](C)O)NC(=O)[C@H](C(C)C)NC(=O)[C@H](CCN)NC(=O)[C@H](Cc3c[nH]c4ccccc34)NC(=O)[C@H](CCN)NC(=O)[C@@H](CCN)NC2=O)[C@@H](C)O)CCNC(=O)[C@H]([C@@H](C)O)NC(=O)[C@H](CCN)NC(=O)[C@H](CCN)NC1=O [Ex. 91] (I: cyclo(LTY[Dab]E[dDab][Dab]W[Dab]VTS[dP]P) / II: [Dab]T[Dab][Dab][Dab][dL]L[Dab][Dab]T; amide I:5-II:N; lactam II:4-II:C),1,0.5,1,0.125,0.125,0.25,0.5,0.5
CC(C)C[C@@H]1NC(=O)[C@@H](CC(C)C)NC(=O)[C@H](CCN)NC(=O)[C@@H](NC(=O)[C@H](CCN)NC(=O)[C@@H](NC(=O)[C@H](CCN)NC(=O)CC[C@@H]2NC(=O)[C@H](CCN)NC(=O)[C@H](Cc3ccc(O)cc3)NC(=O)[C@H](CO)NC(=O)[C@H](CC(C)C)NC(=O)[C@@H]3CCCN3C(=O)[C@H]3CCCN3C(=O)[C@H](CO)NC(=O)[C@H]([C@@H](C)O)NC(=O)[C@H](C(C)C)NC(=O)[C@H](CCN)NC(=O)[C@H](Cc3c[nH]c4ccccc34)NC(=O)[C@H](CCN)NC(=O)[C@@H](CCN)NC2=O)[C@@H](C)O)CCNC(=O)[C@H]([C@@H](C)O)NC(=O)[C@H](CCN)NC(=O)[C@H](CCN)NC1=O [Ex. 92] (I: cyclo(W[Dab]VTS[dP]PLSY[Dab]E[dDab][Dab]) / II: [Dab]T[Dab][Dab][Dab][dL]L[Dab][Dab]T; amide I:12-II:N; lactam II:4-II:C),1,0.25,0.5,0.125,0.25,0.25,0.5,0.5
CC(C)C[C@@H]1NC(=O)[C@@H](CC(C)C)NC(=O)[C@H](CCN)NC(=O)[C@@H](NC(=O)[C@H](CCN)NC(=O)[C@@H](NC(=O)[C@H](CCN)NC(=O)CC[C@@H]2NC(=O)[C@H](CCN)NC(=O)[C@H](Cc3ccc(O)cc3)NC(=O)[C@H]([C@@H](C)O)NC(=O)[C@H](C(C)C)NC(=O)[C@@H]3C[C@@H](O)CN3C(=O)[C@H]3CCN3C(=O)[C@H](CO)NC(=O)[C@H](CO)NC(=O)[C@H](C(C)C)NC(=O)[C@H](CCN)NC(=O)[C@H](Cc3c[nH]c4ccccc34)NC(=O)[C@H](CCN)NC(=O)[C@@H](CCN)NC2=O)[C@@H](C)O)CCNC(=O)[C@H]([C@@H](C)O)NC(=O)[C@H](CCN)NC(=O)[C@H](CCN)NC1=O [Ex. 93] (I: cyclo([Dab]E[dDab][Dab]W[Dab]VSS[dAze][Hyp]VTY) / II: [Dab]T[Dab][Dab][Dab][dL]L[Dab][Dab]T; amide I:2-II:N; lactam II:4-II:C),1,0.25,8,0.5,0.25,2,2,1
CC(C)C[C@@H]1NC(=O)[C@@H](CC(C)C)NC(=O)[C@H](CCN)NC(=O)[C@@H](NC(=O)[C@H](CCN)NC(=O)[C@@H](NC(=O)[C@H](CCN)NC(=O)CC[C@@H]2NC(=O)CNC(=O)[C@H](CCCN)NC(=O)[C@H](CCN)NC(=O)[C@H](Cc3ccc(O)cc3)NC(=O)[C@H](CO)NC(=O)[C@H](CC(C)C)NC(=O)[C@@H]3CCCN3C(=O)[C@H]3CCCN3C(=O)[C@H](CO)NC(=O)[C@H]([C@@H](C)O)NC(=O)[C@H](C(C)C)NC(=O)[C@H](CCN)NC(=O)[C@H](Cc3c[nH]c4ccccc34)NC2=O)[C@@H](C)O)CCNC(=O)[C@H]([C@@H](C)O)NC(=O)[C@H](CCN)NC(=O)[C@H](CCN)NC1=O [Ex. 94] (I: cyclo(LSY[Dab][Orn]GEW[Dab]VTS[dP]P) / II: [Dab]T[Dab][Dab][Dab][dL]L[Dab][Dab]T; amide I:7-II:N; lactam II:4-II:C),1,0.25,0.5,0.0625,0.125,0.0625,1,0.25
CC(C)C[C@@H]1NC(=O)[C@@H](CC(C)C)NC(=O)[C@H](CCN)NC(=O)[C@@H](NC(=O)[C@H](CCN)NC(=O)[C@@H](NC(=O)[C@H](CCN)NC(=O)CC[C@@H]2NC(=O)[C@H](CCN)NC(=O)[C@H](Cc3ccc(O)cc3)NC(=O)[C@H](CO)NC(=O)[C@H](CC(C)C)NC(=O)[C@@H]3CCCN3C(=O)[C@H]3CCCN3C(=O)[C@H](CO)NC(=O)[C@H](Cc3ccc(O)cc3)NC(=O)[C@H](C(C)C)NC(=O)[C@H](CCN)NC(=O)[C@H](Cc3c[nH]c4ccccc34)NC(=O)[C@H](CCN)NC(=O)[C@@H](CCN)NC2=O)[C@@H](C)O)CCNC(=O)[C@H]([C@@H](C)O)NC(=O)[C@H](CCN)NC(=O)[C@H](CCN)NC1=O [Ex. 95] (I: cyclo(LSY[Dab]E[dDab][Dab]W[Dab]VYS[dP]P) / II: [Dab]T[Dab][Dab][Dab][dL]L[Dab][Dab]T; amide I:5-II:N; lactam II:4-II:C),1,0.5,1,0.25,0.5,0.5,1,1
CC(C)C[C@@H]1NC(=O)[C@@H](CC(C)C)NC(=O)[C@H](CCN)NC(=O)[C@@H](NC(=O)[C@H](CCN)NC(=O)[C@@H](NC(=O)[C@H](CCN)NC(=O)CC[C@@H]2NC(=O)[C@H](CCN)NC(=O)[C@H](Cc3ccc(O)cc3)NC(=O)[C@H](CO)NC(=O)[C@H](CC(C)C)NC(=O)[C@@H]3CCCN3C(=O)[C@H]3CCCN3C(=O)[C@H](Cc3ccc(O)cc3)NC(=O)[C@H]([C@@H](C)O)NC(=O)[C@H](C(C)C)NC(=O)[C@H](CCN)NC(=O)[C@H](Cc3c[nH]c4ccccc34)NC(=O)[C@H](CCN)NC(=O)[C@@H](CCN)NC2=O)[C@@H](C)O)CCNC(=O)[C@H]([C@@H](C)O)NC(=O)[C@H](CCN)NC(=O)[C@H](CCN)NC1=O [Ex. 96] (I: cyclo(W[Dab]VTY[dP]PLSY[Dab]E[dDab][Dab]) / II: [Dab]T[Dab][Dab][Dab][dL]L[Dab][Dab]T; amide I:12-II:N; lactam II:4-II:C),4,0.5,1,0.125,0.25,0.25,0.25,1
